Measurements as given in US11452717B2, “Small molecule activators of nicotinamide phosphoribosyltransferase (NAMPT) and uses thereof” (Sanford Burnham Prebys Medical Discovery Institute, priority 2017, dated 2022).
pEC50: −log10 of the molar value.

Biological target: NAMPT enzyme (Homo sapiens (Human), UniProt P43490)
Assay: Enzyme Assay and NMN Detection (NAMPT reaction, fluorescence detection of NMN)
Type: biochemical
Settings: Table B-1; NAMPT activation, NMN formation
In short: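 NMN formed was read at ex380/em460 after acetophenone/KOH derivatization and formic acid addition, using a same-day calibration curve. Final conditions: NAMPT 16 nM, nicotinamide 5 uM, PRPP 6.25 uM, ATP 120 uM, pyrophosphatase 0.04 U/ml, pH 7.5 HEPES buffer with MgCl2 and TCEP, 2 h at room temperature.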

Chain of NAMPT enzyme (P43490 whole entry, species assumed): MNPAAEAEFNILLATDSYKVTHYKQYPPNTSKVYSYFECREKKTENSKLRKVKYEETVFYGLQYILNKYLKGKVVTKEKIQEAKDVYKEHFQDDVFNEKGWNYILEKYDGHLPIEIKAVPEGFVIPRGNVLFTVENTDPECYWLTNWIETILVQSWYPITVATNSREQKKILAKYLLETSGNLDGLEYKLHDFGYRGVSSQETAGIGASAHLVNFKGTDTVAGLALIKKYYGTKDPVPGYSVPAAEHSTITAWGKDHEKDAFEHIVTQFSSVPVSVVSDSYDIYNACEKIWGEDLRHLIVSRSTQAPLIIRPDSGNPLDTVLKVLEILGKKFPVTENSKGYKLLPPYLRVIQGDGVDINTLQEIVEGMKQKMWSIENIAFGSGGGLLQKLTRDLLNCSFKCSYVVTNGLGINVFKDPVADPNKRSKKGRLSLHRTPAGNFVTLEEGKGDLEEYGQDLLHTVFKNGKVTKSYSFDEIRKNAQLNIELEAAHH

pEC50	SMILES
5.70 to 7.00	CN(C1CCCC1)S(=O)(=O)c1ccc(NC(=O)NCc2cn[nH]c2)cc1 [N-Cyclopentyl-N-methyl-4-[3-(1H-pyrazol-4-ylmethyl)-ureido]-benzenesulfonamide]
5.70 to 7.00	O=C(NCc1cn[nH]c1)Nc1ccc(S(=O)(=O)Nc2ccccc2)cc1 [N-Phenyl-4-[3-(1H-pyrazol-4-ylmethyl)-ureido]-benzenesulfonamide]
5.70 to 7.00	O=C(NCc1cnco1)Nc1ccc(NS(=O)(=O)c2ccccc2)cc1 [N-[4-(3-Oxazol-5-ylmethyl-ureido)-phenyl]-benzenesulfonamide]
> 7.00	O=C(NCc1cn[nH]c1)Nc1ccc(NS(=O)(=O)c2ccccc2)cc1 [N-{4-[3-(1H-Pyrazol-4-ylmethyl)-ureido]-phenyl}-benzenesulfonamide]

Same assay, conditions: Table B-2; NAMPT activation, NMN formation

pEC50	SMILES
5.30 to 5.70	O=C(NCc1ccncc1)Nc1ccc(S(=O)(=O)NC2CC2)cc1 [N-Cyclopropyl-4-(3-pyridin-4-ylmethyl-ureido)-benzenesulfonamide]
5.70 to 7.00	O=C(NCc1ccncc1)Nc1ccc(S(=O)(=O)NCC2CC2)cc1 [N-Cyclopropylmethyl-4-(3-pyridin-4-ylmethyl-ureido)-benzenesulfonamide]
5.70 to 7.00	CC(C)NS(=O)(=O)c1ccc(NC(=O)NCc2ccncc2)cc1 [N-Isopropyl-4-(3-pyridin-4-ylmethyl-ureido)-benzenesulfonamide]
5.30 to 5.70	CNS(=O)(=O)c1ccc(NC(=O)NCc2ccncc2)cc1 [N-Methyl-4-(3-pyridin-4-ylmethyl-ureido)-benzenesulfonamide]
> 7.00	Cc1ccccc1CN(C)S(=O)(=O)c1ccc(NC(=O)NCc2ccncc2)cc1 [N-Methyl-N-(2-methyl-benzyl)-4-(3-pyridin-4-ylmethyl-ureido)-benzenesulfonamide]
5.70 to 7.00	CN(c1ccc(NC(=O)NCc2ccncc2)cc1)S(=O)(=O)c1ccccc1 [N-Methyl-N-[4-(3-pyridin-4-ylmethyl-ureido)-phenyl]-benzenesulfonamide]
5.70 to 7.00	CN(c1ccccc1)S(=O)(=O)Cc1ccc(NC(=O)NCc2ccncc2)cc1 [N-Methyl-N-phenyl-C-[4-(3-pyridin-4-ylmethyl-ureido)-phenyl]-methanesulfonamide]
5.70 to 7.00	O=C(NCc1ccncc1)Nc1ccc(S(=O)(=O)Nc2ccccc2)cc1 [N-Phenyl-4-(3-pyridin-4-ylmethyl-ureido)-benzenesulfonamide]
5.70 to 7.00	O=C(NCc1ccncc1)Nc1ccc(CS(=O)(=O)Nc2ccccc2)cc1 [N-Phenyl-C-[4-(3-pyridin-4-ylmethyl-ureido)-phenyl]-methanesulfonamide]
5.70 to 7.00	CCCNS(=O)(=O)c1ccc(NC(=O)NCc2ccncc2)cc1 [N-Propyl-4-(3-pyridin-4-ylmethyl-ureido)-benzenesulfonamide]
< 4.70	O=C(NCc1ccncc1)Nc1ccc(S(=O)(=O)Nc2ccccn2)cc1 [N-Pyridin-2-yl-4-(3-pyridin-4-ylmethyl-ureido)-benzenesulfonamide]
5.70 to 7.00	O=C(NCc1ccncc1)Nc1ccc(S(=O)(=O)NCc2ccncc2)cc1 [N-Pyridin-4-ylmethyl-4-(3-pyridin-4-ylmethyl-ureido)-benzenesulfonamide]
5.70 to 7.00	CN1CCN(CCNS(=O)(=O)c2ccc(NC(=O)NCc3ccncc3)cc2)CC1 [N-[2-(4-Methyl-piperazin-1-yl)-ethyl]-4-(3-pyridin-4-ylmethyl-ureido)-benzenesulfonamide]
> 7.00	O=C(NCc1ccncc1)Nc1ccc(NS(=O)(=O)c2ccccc2)cc1 [N-[4-(3-Pyridin-4-ylmethyl-ureido)-phenyl]-benzenesulfonamide]
4.70 to 5.30	O=C(NCc1ccncc1)Nc1cccc(S(=O)(=O)NCc2ccccc2)c1 [N-benzyl-3-(3-(pyridin-4-ylmethyl)ureido)benzenesulfonamide]
5.70 to 7.00	O=C(NCc1ccncc1)Nc1ccc(S(=O)(=O)NC2CCCC2)cc1 [N-cyclopentyl-4-(3-pyridin-4-ylmethyl-ureido)-benzenesulfonamide]
> 7.00	CN(Cc1ccccc1C(F)(F)F)S(=O)(=O)c1ccc(NC(=O)NCc2ccncc2)cc1 [N-methyl-4-(3-(pyridin-4-ylmethyl)ureido)-N-(2-(trifluoromethyl)benzyl)benzenesulfonamide]
> 7.00	CN(c1ccc(NC(=O)NCc2ccncc2)cc1)S(=O)(=O)Cc1ccccc1 [N-methyl-C-phenyl-N-[4-(3-pyridin-4-ylmethyl-ureido)-phenyl]-methanesulfonamide]
5.70 to 7.00	CC(C)(C)CNS(=O)(=O)c1ccc(NC(=O)NCc2ccncc2)cc1 [N-neopentyl-4-(3-pyridin-4-ylmethyl-ureido)-benzenesulfonamide]
< 4.70	O=C(NCc1ccncc1)Nc1cccc(S(=O)(=O)NCCc2ccccc2)c1 [N-phenethyl-3-(3-(pyridin-4-ylmethyl)ureido)benzenesulfonamide]

More lines, now with the values behind:

SMILES	pEC50
CC(C)NC(=O)c1ccc(NC(=O)NCc2ccncc2)cc1 [N-Isopropyl-4-(3-(pyridin-4-ylmethyl)ureido)benzamide]	5.70 to 7.00
CC(C)N(c1ccc(NC(=O)NCc2ccncc2)cc1)S(=O)(=O)Cc1ccccc1 [N-Isopropyl-C-phenyl-N-[4-(3-pyridin-4-ylmethyl-ureido)-phenyl]-methanesulfonamide]	5.30 to 5.70
CC(C)N(c1ccc(NC(=O)NCc2ccncc2)cc1)S(=O)(=O)c1ccccc1 [N-Isopropyl-N-[4-(3-pyridin-4-ylmethyl-ureido)-phenyl]-benzenesulfonamide]	5.30 to 5.70
CN(Cc1ccccc1OC(F)(F)F)S(=O)(=O)c1ccc(NC(=O)NCc2ccncc2)cc1 [N-Methyl-4-(3-pyridin-4-ylmethyl-ureido)-N-(2-trifluoromethoxy-benzyl)-benzenesulfonamide]	> 7.00
O=C(NCc1ccccc1)Nc1ccc(NS(=O)(=O)Cc2ccccc2)cc1 [N-[4-(3-Benzyl-ureido)-phenyl]-C-phenyl-methanesulfonamide]	> 7.00
CN(Cc1ccccc1)C(=O)c1ccc(NC(=O)NCc2ccncc2)cc1 [N-benzyl-N-methyl-4-(3-(pyridin-4-ylmethyl)ureido)benzamide]	5.70 to 7.00
CCCCNC(=O)c1ccc(NC(=O)NCc2ccncc2)cc1 [N-butyl-4-(3-(pyridin-4-ylmethyl)ureido)benzamide]	5.70 to 7.00
O=C(NCc1ccncc1)Nc1ccc(C(=O)NC2CCC2)cc1 [N-cyclobutyl-4-(3-(pyridin-4-ylmethyl)ureido)benzamide]	4.70 to 5.30
O=C(NCc1ccncc1)Nc1ccc(C(=O)NC2CCCCC2)cc1 [N-cyclohexyl-4-(3-(pyridin-4-ylmethyl)ureido)benzamide]	5.30 to 5.70
O=C(NCc1ccncc1)Nc1cccc(S(=O)(=O)NC2CCCC2)c1 [N-cyclopentyl-3-(3-(pyridin-4-ylmethyl)ureido)benzenesulfonamide]	< 4.70
O=C(NCc1ccncc1)Nc1ccc(C(=O)NC2CCCC2)cc1 [N-cyclopentyl-4-(3-(pyridin-4-ylmethyl)ureido)benzamide]	4.70 to 5.30
CCN(C)C(=O)c1ccc(NC(=O)NCc2ccncc2)cc1 [N-ethyl-N-methyl-4-(3-(pyridin-4-ylmethyl)ureido)benzamide]	4.70 to 5.30
CC(C)CNC(=O)c1ccc(NC(=O)NCc2ccncc2)cc1 [N-isobutyl-4-(3-(pyridin-4-ylmethyl)ureido)benzamide]	5.70 to 7.00
Cc1ccc(N(C)C(=O)c2ccc(NC(=O)NCc3ccncc3)cc2)cc1 [N-methyl-4-(3-(pyridin-4-ylmethyl)ureido)-N-(p-tolyl)benzamide]	4.70 to 5.30
CCCN(C)C(=O)c1ccc(NC(=O)NCc2ccncc2)cc1 [N-methyl-N-propyl-4-(3-(pyridin-4-ylmethyl)ureido)benzamide]	4.70 to 5.30
O=C(NCc1ccncc1)Nc1ccc(C(=O)NCCc2ccccc2)cc1 [N-phenethyl-4-(3-(pyridin-4-ylmethyl)ureido)benzamide]	5.70 to 7.00
O=C(NCc1ccncc1)Nc1ccc(C(=O)Nc2ccccc2)cc1 [N-phenyl-4-(3-(pyridin-4-ylmethyl)ureido)benzamide]	5.30 to 5.70
CCCNC(=O)c1ccc(NC(=O)NCc2ccncc2)cc1 [N-propyl-4-(3-(pyridin-4-ylmethyl)ureido)benzamide]	5.30 to 5.70
O=C(NCc1ccncc1)Nc1ccc(S(=O)(=O)N2CCc3cc(C(F)(F)F)ccc3C2)cc1 [Pyridin-4-ylmethyl-3-[4-(6-trifluoromethyl-3,4-dihydro-1H-isoquinoline-2-sulfonyl)-phenyl]-urea]	5.70 to 7.00
O=C(NCc1ccncc1)Nc1ccc(S(=O)(=O)N2CCc3cccc(C(F)(F)F)c3C2)cc1 [Pyridin-4-ylmethyl-3-[4-(8-trifluoromethyl-3,4-dihydro-1H-isoquinoline-2-sulfonyl)-phenyl]-urea]	5.70 to 7.00
O=C(NCc1ccncc1)Nc1ccc(S(=O)(=O)N2CCCC2)cc1 [Pyridin-4-ylmethyl-3-[4-(pyrrolidine-1-sulfonyl)-phenyl]-urea]	5.70 to 7.00

Same assay, conditions: Table B-6; NAMPT activation, NMN formation

pEC50	SMILES
> 7.00	Cc1cccc(CS(=O)(=O)Nc2ccc(NC(=O)NCc3ccncc3)cc2)c1 [N-[4-(3-Pyridin-4-ylmethyl-ureido)-phenyl]-C-m-tolyl-methanesulfonamide]
> 7.00	Cc1ccc(CS(=O)(=O)Nc2ccc(NC(=O)NCc3ccncc3)cc2)cc1 [N-[4-(3-Pyridin-4-ylmethyl-ureido)-phenyl]-C-p-tolyl-methanesulfonamide]
5.70 to 7.00	O=C(NCc1ccncc1)Nc1ccc(S(=O)(=O)c2nccs2)cc1 [Pyridin-4-ylmethyl-3-[4-(thiazole-2-sulfonyl)-phenyl]-urea]

Tested on: not given
Assay: not given
Settings: adult mice, specific deletion of NAMPT; administration of the NAD precursor; cited from earlier work

SMILES	exercise performance, mass and strength of muscle
NC(=O)c1ccc[n+]([C@@H]2O[C@H](CO)[C@@H](O)[C@H]2O)c1 [nicotinamide riboside]	rapidly and uniformly restored
